Series [1] is described as follows: Plasma 23CPPA after oral graduated doses of nonformulated 23CPPA to normal men. Format: in vivo. The procedure:
Plasma concentrations of 23CPPA were measured in samples obtained at timed intervals after oral administration of graduated doses of nonformulated 23CPPA to normal men.

Series [2] is described as follows: Pharmacokinetics following oral administration of 23CPPA in rats for fourteen days. It counts as in vivo. Conditions: for Tmax / half-life: rat, plasma. The procedure:
(§1) Rats (Charles River Laboratories) received 23CPPA orally at dosages of 25 and 75 mg per kg per day for fourteen days. Samples were obtained at timed intervals following administration for measurement of plasma concentrations of 23CPPA and pharmacokinetic analysis, and tissue was histopathologically examined at the end termination of the study period.

Series [3] in a line: pKa (acid dissociation constant). Format: physicochemical. The settings on record: pharmaceutically acceptable salts of 23CPPA such as potassium; read-out: pKa (logarithm of the acid dissociation constant).
A short description of series [4]: Gastric histopathology following oral administration of 23CPPA in rats for fourteen days. Format: in vivo. Here is the method: as §1

As to `O=C(O)Cc1ccccc1Nc1cccc(Cl)c1` [Granule 23CPPA, 2-[(3-chlorophenyl)amino] phenylacetic acid], the “Plasma 23CPPA (peak concentration)” value in series [1] (relative dose 1) is 7 nmol/mL; in series [1] (relative dose 2), 19 nmol/mL; in series [1] (relative dose 5), 44 nmol/mL; in series [1] (relative dose 10), 64 nmol/mL; in series [1] (relative dose 15), 70 nmol/mL; in series [1] (relative dose 20) it was 74 nmol/mL. Besides, in series [2] (25 and 75 mg per kg per day), the “time of maximum plasma concentration of drug after administration” value came to 0.25 h. In addition, the Tmax in series [2] (25 mg/kg/day for fourteen days) and in series [2] (75 mg/kg/day for fourteen days) was 0.25 h each time. Moreover, the half-life in series [2] (25 mg/kg/day for fourteen days) and in series [2] (75 mg/kg/day for fourteen days) was 2.3 h each time. The pKa in series [3] stood at 4. The results for the “Gastric Histopathology: Edema/inflammation” value in series [4] (25 mg/kg/day for fourteen days) and in series [4] (75 mg/kg/day for fourteen days) were “Edema/inflammation (20) % animals” and “Edema/inflammation (30) % animals”, respectively.

By Tmax is commonly meant the time at which the peak concentration occurs. A word on the half-life: it is the time in which the quantity being followed falls by half. High values mean slow decline, low ones rapid decline. For orientation: pKa means the negative logarithm of the acid dissociation constant.

The values are drawn from US8962020B2, “Long-acting and controlled release formulations of 2-[(3-chlorophenyl) amino] phenylacetic acid” (Glycadia Inc., priority 2012, dated 2015).
